Data from patent US10450288B2, “Hydroxy formamide derivatives and their use” (GLAXOSMITHKLINE INTELLECTUAL PROPERTY (NO.2) LIMITED, priority 2014, dated 2019).

Each compound was assayed on human cardiac fibroblasts (assay: Cell-based inhibition assay of generation of procollagen I C-terminal propeptide (PICP), PICP ELISA). Conditions: Cardiac fibroblast; human cardiac fibroblasts, crowding media, 24 to 48 hr, PICP ELISA of media; read-out: pIC50, PICP cellular inhibition assay (converted).
Protocol: Cell-Based Inhibition Assay of Generation of Procollagen I C-Terminal Propeptide (PICP) and Mature Collagen:
An adaptation of the collagen deposition assay described by Chen, C. Z. C., et al., British Journal of Pharmacology, 2009, 158, 1196-1209 was used to examine effect of compounds on procollagen I processing and collagen deposition. In the adapted assay, human cardiac fibroblasts were utilized. Processing of procollagen I was determined by a PICP ELISA assay and deposition of mature collagen was determined by immunostaining.
Human cardiac fibroblasts were cultured and maintained until passage 6 in FGM-3 media (Lonza, #CC-3132) in a 37° C. humidified incubator with 5% CO2. They were then seeded in 96-well black wall, clear bottom plates at 10,000 to 15,000 cells per well in eagle's minimum essential media (EMEM, ATCC #30-2003) containing 10% fetal bovine serum (FBS, Life Technologies #10082147), 1% Glutamax (Life Technologies #35050061) and 1% Penicillin and Streptomycin (Life Technologies #15070063). These cultures were placed in 37° C. incubator. The next day, media were removed by aspiration and cells were rinsed with phosphate buffered saline. Crowding media (also called ficoll media) was prepared by adding 112.5 mg/ml of ficoll70 and 75 mg/ml ficoll400 (GE healthcare #17-0310-10 and 17-0300-10, respectively), 100 μM ascorbic acid, 1% Glutamax and 1% Penicillin and Streptomycin to EMEM media. Test compounds (dissolved in DMSO) were diluted into crowding media and then added to the cells. Final concentration of DMSO in crowding media was less than 0.3%. Cells were treated for 24 to 48 hr in a 37° C. incubator. At the end of the treatment period, cell media were collected. The level of PICP in the media were determined by a PICP ELISA assay (Quidel #8003) following the manufacturer's protocol. Potencies of test compounds were calculated by fitting PICP levels, relative to untreated controls, to log (inhibitor) vs. response equation using Graphpad Prism software 5.0 and expressed as pIC50.

How did the IC50 turn out when `CCCCC[C@@H](C(=O)NCNC(=O)c1ccc(-c2ccc(C(=O)O)c(OCC)c2)o1)[C@@H](CC)N(O)C=O` [Example 1, 2-ethoxy-4-(5-((((R)-2-((R)-1-(N-hydroxyformamido)propyl)heptanamido)methyl)carbamoyl)furan-2-yl)benzoic acid] was run?
The IC50 was less than 3.98 µM.

`CCCCC[C@H](CN(O)C=O)C(=O)NCNC(=O)c1ccc(-c2cccc(S(N)(=O)=O)c2)o1` [Example 12, (R)-N-((2-((N-hydroxyformamido)methyl)heptanamido)methyl)-5-(3-sulfamoylphenyl)furan-2-carboxamide] was tested. Which IC50 did it give?
The IC50 was less than 3.98 µM.

With `CCCCC[C@H](CN(O)C=O)C(=O)NCNC(=O)c1ccc(-c2cccc(OC(F)(F)F)c2)o1` [Example 13, (R)-N-((2-((N-hydroxyformamido)methyl)heptanamido)methyl)-5-(3-(trifluoromethoxy)phenyl) furan-2-carboxamide carboxamide] as the compound, how does the IC50 read?
The IC50 was less than 3.98 µM.

For `CCCCC[C@H](CN(O)C=O)C(=O)NCNC(=O)c1ccc(-c2cccc(OCC)c2)o1` [Example 14, (R)-5-(3-ethoxyphenyl)-N-((2-((N-hydroxyformamido)methyl)heptanamido)methyl) furan-2-carboxamide], which IC50 is on record?
The IC50 was less than 3.98 µM.

Which IC50 does the source give for `CCCCC[C@H](CN(O)C=O)C(=O)NCNC(=O)c1ccc(-c2cccc(C(=O)OC)c2)o1` [Example 16, (R)-methyl 3-(5-(((2-((N-hydroxyformamido)methyl)heptanamido)methyl)carbamoyl)furan-2-yl)benzoate] here?
Its IC50 is less than 3.98 µM.

For `CCCCC[C@H](CN(O)C=O)C(=O)NCNC(=O)c1ccc(-c2cc(OC)ccn2)o1` [Example 18, (R)-N-((2-((N-hydroxyformamido)methyl)heptanamido)methyl)-5-(4-methoxypyridin-2-yl)furan-2-carboxamide], which IC50 is on record?
Its IC50 is less than 3.98 µM.

`CCCCC[C@H](CN(O)C=O)C(=O)NCNC(=O)c1ccc(-c2cccc(S(=O)(=O)NC)c2)o1` [Example 22, (R)-N-((2-((N-hydroxyformamido)methyl)heptanamido)methyl)-5-(3-(N-methylsulfamoyl)phenyl) furan-2-carboxamide] was tested. Which IC50 did it give?
Its IC50 is less than 3.98 µM.

With `CCCCC[C@H](CN(O)C=O)C(=O)NCNC(=O)c1ccc(-c2cccc(OCC(F)(F)F)c2)o1` [Example 23, (R)-N-((2-((N-hydroxyformamido)methyl)heptanamido)methyl)-5-(3-(2,2,2-trifluoroethoxy)phenyl) furan-2-carboxamide] as the compound, how does the IC50 read?
Its IC50 is less than 3.98 µM.

For `CCCCC[C@H](CN(O)C=O)C(=O)NCNC(=O)c1ccc(-c2cccc(OC(C)C)c2)o1` [Example 25, (R)-N-((2-((N-hydroxyformamido)methyl)heptanamido)methyl)-5-(3-isopropoxyphenyl)furan-2-carboxamide], which IC50 is on record?
The IC50 was less than 3.98 µM.

For `CCCCC[C@H](CN(O)C=O)C(=O)NCNC(=O)c1ccc(-c2cc(OCC)cc(C(=O)OC)c2)o1` [Example 26], which IC50 is on record?
The IC50 was less than 3.98 µM.

For `CCCCC[C@H](CN(O)C=O)C(=O)NCNC(=O)c1ccc(-c2cccc(N(C)C)c2)o1` [Example 27, (R)-5-(3-(dimethylamino)phenyl)-N-((2-((N-hydroxyformamido)methyl)heptanamido)methyl) furan-2-carboxamide], which IC50 is on record?
Its IC50 is less than 3.98 µM.

With `CCCCC[C@H](CN(O)C=O)C(=O)NCNC(=O)c1ccc(-c2cccc(S(=O)(=O)NC(=O)CC)c2)o1` [Example 28, (R)-N-((2-((N-hydroxyformamido)methyl)heptanamido)methyl)-5-(3-(N-propionylsulfamoyl)phenyl)furan-2-carboxamide] as the compound, how does the IC50 read?
The IC50 was less than 3.98 µM.

With `CCCCC[C@H](CN(O)C=O)C(=O)NCNC(=O)c1ccc(-c2cc(OCC)cc(C(=O)O)c2)o1` [Example 30, (R)-3-ethoxy-5-(5-(((2-((N-hydroxyformamido)methyl)heptanamido)methyl)carbamoyl)furan-2-yl)benzoic acid] as the compound, how does the IC50 read?
The IC50 was less than 3.98 µM.

How did the IC50 turn out when `CCCCC[C@H](CN(O)C=O)C(=O)NCNC(=O)c1ccc(-c2cc(OC)cc(C(=O)NCCN)c2)o1` [Example 33, (R)-5-(3-((2-aminoethyl)carbamoyl)-5-methoxyphenyl)-N-((2-((N-hydroxyformamido)methyl)heptanamido)methyl) furan-2-carboxamide] was run?
The IC50 was less than 3.98 µM.

Which IC50 does the source give for `CCCCC[C@H](CN(O)C=O)C(=O)NCNC(=O)c1ccc(-c2cc(OCC)cc(C(=O)NCCN)c2)o1` [Example 34, (R)-5-(3-((2-aminoethyl)carbamoyl)-5-ethoxyphenyl)-N-((2-((N-hydroxyformamido)methyl)heptanamido)methyl) furan-2-carboxamide] here?
The IC50 was less than 3.98 µM.

Which IC50 does the source give for `CCCCC[C@H](CN(O)C=O)C(=O)NCNC(=O)c1ccc(-c2cccc(OC(F)F)c2)o1` [Example 35, (R)-5-(3-(difluoromethoxy)phenyl)-N-((2-((N hydroxyformamido)methyl)heptanamido)methyl) furan-2-carboxamide] here?
Its IC50 is less than 3.98 µM.

How did the IC50 turn out when `CCCCC[C@@H](C(=O)NCNC(=O)c1ccc(-c2cc(OCC)cc(C(=O)NCCN)c2)o1)[C@@H](CC)N(O)C=O` [Example 40, 5-(3-((2-aminoethyl)carbamoyl)-5-ethoxyphenyl)-N-(((R)-2-((R)-1-(N-hydroxyformamido)propyl)heptanamido)methyl) furan-2-carboxamide] was run?
The IC50 was less than 3.98 µM.

With `CCCCC[C@@H](C(=O)NCNC(=O)c1ccc(-c2ccc(CC(=O)O)c(OCC)c2)o1)[C@@H](CC)N(O)C=O` [Example 41, 2-(2-ethoxy-4-(5-((((R)-2-((R)-1-(N-hydroxyformamido)propyl)heptanamido)methyl)carbamoyl)furan-2-yl)phenyl)acetic acid] as the compound, how does the IC50 read?
Its IC50 is less than 3.98 µM.

`CCCCC[C@@H](C(=O)NCNC(=O)c1ccc(-c2ccc(CC(=O)O)cc2)o1)[C@@H](CC)N(O)C=O` [Example 42, 2-(4-(5-((((R)-2-((R)-1-(N-hydroxyformamido)propyl)heptanamido)methyl)carbamoyl)furan-2-yl)phenyl)acetic acid] was tested. Which IC50 did it give?
The IC50 was less than 3.98 µM.

How did the IC50 turn out when `CCCCC[C@@H](C(=O)NCNC(=O)c1ccc(-c2ccc(C(C)(C)C(=O)O)cc2)o1)[C@@H](CC)N(O)C=O` [Example 43, 2-(4-(5-((((R)-2-((R)-1-(N-hydroxyformamido)propyl)heptanamido)methyl)carbamoyl)furan-2-yl)phenyl)-2-methylpropanoic acid] was run?
The IC50 was less than 3.98 µM.

For `CCCCC[C@@H](C(=O)NCNC(=O)c1ccc(-c2ccc(C3(C(=O)O)CC3)cc2)o1)[C@@H](CC)N(O)C=O` [Example 44, 1-(4-(5-((((R)-2-((R)-1-(N-hydroxyformamido)propyl)heptanamido)methyl)carbamoyl)furan-2-yl)phenyl)cyclopropane-carboxylic acid], which IC50 is on record?
Its IC50 is less than 3.98 µM.

With `CCCCC[C@@H](C(=O)NCNC(=O)c1ccc(-c2cc(OCC)cc(C(=O)N[C@@H](CCC(=O)O)C(=O)OC(C)(C)C)c2)o1)[C@@H](CC)N(O)C=O` [Example 45, (S)-5-(tert-butoxy)-4-(3-ethoxy-5-(5-((((R)-2-((R)-1-(N-hydroxyformamido)propyl)heptanamido)methyl)carbamoyl)furan-2-yl)benzamido)-5-oxopentanoic acid] as the compound, how does the IC50 read?
The IC50 was less than 3.98 µM.

With `CCCCC[C@@H](C(=O)NCNC(=O)c1ccc(-c2cc(OCC)cc(C(=O)N[C@@H](CCC(=O)OC)C(=O)OC)c2)o1)[C@@H](CC)N(O)C=O` [Example 48, (S)-dimethyl 2-(3-ethoxy-5-(5-((((R)-2-((R)-1-(N-hydroxyformamido)propyl)heptanamido)methyl)carbamoyl)furan-2-yl)benzamido) pentanedioate] as the compound, how does the IC50 read?
The IC50 was less than 3.98 µM.

`CCCCC[C@@H](C(=O)NCNC(=O)c1ccc(-c2cc(OCC)cc(C(F)(F)C(=O)O)c2)o1)[C@@H](CC)N(O)C=O` [Example 49, 2-(3-ethoxy-5-(5-((((R)-2-((R)-1-(N-hydroxyformamido)propyl)heptanamido)methyl)carbamoyl)furan-2-yl)phenyl)-2,2-difluoroacetic acid] was tested. Which IC50 did it give?
Its IC50 is less than 3.98 µM.

`CCCCC[C@H](CN(O)C=O)C(=O)NCNC(=O)c1ccc(-c2ccc(F)c(C(=O)OC)c2)o1` [Example 51, (R)-methyl 2-fluoro-5-(5-(((2-((N-hydroxyformamido)methyl)heptanamido)methyl)carbamoyl)furan-2-yl)benzoate] was tested. Which IC50 did it give?
The IC50 was less than 3.98 µM.

Same assay, conditions: Homo sapiens, Cardiac fibroblast, read-out: pIC50, PICP cellular inhibition assay (converted)

How did the IC50 turn out when `CCCCC[C@H](CN(O)C=O)C(=O)NCNC(=O)c1ccc(-c2cc(OC)cc(C(=O)O)c2)o1` [Example 29, (R)-3-(5-(((2-((N-hydroxyformamido)methyl)heptanamido)methyl)carbamoyl)furan-2-yl)-5-methoxybenzoic acid] was run?
Its IC50 is less than 3.98 µM.

For `CCCCC[C@@H](C(=O)NCNC(=O)c1ccc(-c2cc(OCC)cc(P(=O)(OC)OC)c2)o1)[C@@H](CC)N(O)C=O` [Example 50, dimethyl (3-ethoxy-5-(5-((((R)-2-((R)-1-(N-hydroxyformamido)propyl)heptanamido)methyl)carbamoyl)furan-2-yl)phenyl)phosphonate], which IC50 is on record?
Its IC50 is less than 3.98 µM.
